Laboratory results reported in patent US7585886B2, “Pyrrolidine derivative or salt thereof” (Astellas Pharma Inc., priority 2005, dated 2009).
pEC50, pIC50: −log10 of the molar value. Where a name gives a salt, the structure may show the parent alone. Read-outs that look alike come from different tables or passages of the source.

What was measured:
human CaSR = molecular target: T1, human CaSR (Homo sapiens, UniProt P41180); test: Human calcium sensing receptor (CaSR) agonistic activity test (FLIPR, Fluo-3 intracellular Ca2+); type: cell-based
T1 construct: human CaSR open reading frame (ORF) was contained in the pcDNA3.1/Zeo(+) vector; expressed in transfected cells
T1 sequence (P41180 20-1078): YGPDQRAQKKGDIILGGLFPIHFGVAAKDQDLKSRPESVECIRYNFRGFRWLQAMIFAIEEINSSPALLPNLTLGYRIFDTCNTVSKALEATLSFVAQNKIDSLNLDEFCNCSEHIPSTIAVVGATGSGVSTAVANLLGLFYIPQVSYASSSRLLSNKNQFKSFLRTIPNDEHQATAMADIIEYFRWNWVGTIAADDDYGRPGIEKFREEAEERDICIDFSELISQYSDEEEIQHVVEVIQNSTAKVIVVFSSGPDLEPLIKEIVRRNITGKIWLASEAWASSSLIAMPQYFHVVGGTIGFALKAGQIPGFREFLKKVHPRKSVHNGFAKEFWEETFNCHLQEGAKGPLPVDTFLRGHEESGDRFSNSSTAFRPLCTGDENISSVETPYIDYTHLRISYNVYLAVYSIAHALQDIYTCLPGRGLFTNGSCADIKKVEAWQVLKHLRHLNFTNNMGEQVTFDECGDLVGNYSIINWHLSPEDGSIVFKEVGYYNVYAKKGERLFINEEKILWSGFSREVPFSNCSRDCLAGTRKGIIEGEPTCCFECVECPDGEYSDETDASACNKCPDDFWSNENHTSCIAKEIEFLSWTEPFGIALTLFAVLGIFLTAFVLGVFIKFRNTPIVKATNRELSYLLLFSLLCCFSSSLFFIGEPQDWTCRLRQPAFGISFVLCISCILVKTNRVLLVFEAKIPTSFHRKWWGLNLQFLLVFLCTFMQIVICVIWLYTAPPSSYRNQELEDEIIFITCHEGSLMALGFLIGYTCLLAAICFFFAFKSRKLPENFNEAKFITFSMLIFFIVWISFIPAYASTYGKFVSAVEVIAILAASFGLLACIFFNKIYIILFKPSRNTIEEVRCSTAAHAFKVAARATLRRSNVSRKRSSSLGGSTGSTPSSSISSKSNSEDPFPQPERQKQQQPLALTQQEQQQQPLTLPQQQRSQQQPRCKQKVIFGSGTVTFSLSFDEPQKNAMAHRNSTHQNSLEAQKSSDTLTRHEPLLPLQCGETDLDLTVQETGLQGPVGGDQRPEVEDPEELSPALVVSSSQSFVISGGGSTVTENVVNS
Excerpt: Test 1. Human Calcium Sensing Receptor (CaSR) Agonistic Activity Test
• 1) Preparation of Human CaSR Expression Vector
A DNA fragment coding for human CaSR was cloned in the standard method. Illustratively, using 203 to 2387 of NM_000388 as a DNA fragment D4, and 2210 to 3633 as a DNA fragment B2, they were amplified using a human kidney cDNA (mfd. by Invitrogen) as the template and using a DNA polymerase (a registered trade name: Pyrobest, mfd. by Takara Bio), and respectively cloned into a pCR2.1 vector using a pCR2.1-Topo vector (mfd. by Invitrogen). Next, DNA fragments prepared by digesting pCR2.1-D4 with SpeI and XbaI were inserted into the same sites of pcDNA3.1/Zeo(+) vector. Successively, the fragments prepared by digesting pCR2.1-B2 with SacI and XbaI were inserted into the SacI and XbaI sites of previously prepared pcDNA3.1/Zeo(+)-D4 (SpeI-XbaI), thereby obtaining a human CaSR expression vector pcDNA3.1/Zeo(+)-hCaSR in which human CaSR open reading frame (ORF) was contained in the pcDNA3.1/Zeo(+) vector. • 2) Preparation of Human CaSR Expression Cell
The human CaSR expression vector was transferred into HEK 293 cell using a transfection reagent (registered trademark: FuGene 6, mfd. by Roche Diagnostics). After the gene transfer, this was cultured in DMEM (mfd. by Invitrogen) medium containing 40 μg/ml Zeocin (registered trademark) (mfd. by Invitrogen) and 10% fetal bovine serum at 37° C. for 2 weeks in the presence of 5% CO2, thereby obtaining Zeocin-resistant clones. An human CaSR stably expressing HEK 293 clone was obtained from these clones by selection using the responsiveness to extracellular Ca^2+ as the index. • 3) Human CaSR Agonistic Activity Test
The HEK 293 cell stably expressing human CaSR was inoculated into a poly-D-lysine-coated black clear bottom 96 well plate (mfd. by BD Bioscience). Hanks' balanced salt solution (HBSS) (Ca^2+ (−), Mg^2+ (−), mfd. by Invitrogen) containing 20 mM HEPES (2-[4-(2-hydroxyethyl)-1-piperazinyl]ethanesulfonic acid) buffer (pH 7.4), 2.5 mM probenecid (mfd. by Sigma) and 0.1% bovine serum albumin was prepared as a washing buffer. After the inoculation and subsequent overnight culturing, the medium was discarded, the washing buffer supplemented with 1 mM CaCl2 and 10 μM Fluo-3 AM (trade name, mfd by DOJINDO) was added thereto in 100 μl per well portions, and then the incubation was carried out at 37° C. for 1Hour in the presence of 5% CO2. This was washed twice with 200 μl of the washing buffer, replaced by 100 μl of the washing buffer supplemented with 0.5 mM CaCl2 and allowed to stand still for 10 minutes, and then the responsiveness to each compound to be evaluated was detected using a plate reader for fluorometry image analysis use (registered trademark: FLIPR, mfd. by Molecular Devices). In this connection, the compound to be evaluated was used by optionally diluting with the washing buffer supplemented with 0.5 mM Ca^2+.
The human CaSR agonistic activity strength of each compound to be evaluated was calculated by defining the solvent group as 0% and the 2 mM Ca^2+ in final concentration group as 100%, and the compound concentration showing 50% activity (EC50) was calculated from a concentration-activity curve by the method of least squares.

CYP2D6 [1] = molecular target: T2, CYP2D6 (Homo sapiens, UniProt P10635); test: Human CYP2D6 inhibition test (fluorescence substrate AMMC); type: in vitro ADME; design: purchased BD Gentest 456217
T2 sequence (P10635 whole entry): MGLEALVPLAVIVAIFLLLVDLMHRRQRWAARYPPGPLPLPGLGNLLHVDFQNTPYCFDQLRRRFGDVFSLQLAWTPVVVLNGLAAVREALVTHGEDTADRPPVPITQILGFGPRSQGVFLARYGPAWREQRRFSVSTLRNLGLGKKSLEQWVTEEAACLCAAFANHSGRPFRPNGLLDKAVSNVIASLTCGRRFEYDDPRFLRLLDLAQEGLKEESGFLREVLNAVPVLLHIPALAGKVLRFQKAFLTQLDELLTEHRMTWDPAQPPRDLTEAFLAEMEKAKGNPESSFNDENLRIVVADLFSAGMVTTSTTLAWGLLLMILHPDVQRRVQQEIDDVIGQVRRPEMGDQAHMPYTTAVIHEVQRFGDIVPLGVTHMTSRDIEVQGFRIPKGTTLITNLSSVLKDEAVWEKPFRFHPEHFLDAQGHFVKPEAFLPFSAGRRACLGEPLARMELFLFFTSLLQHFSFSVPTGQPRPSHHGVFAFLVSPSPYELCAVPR
Experimental: Test 3. Human CYP2D6 Inhibition Test
Inhibitory activity evaluation for CYP2D6 was carried out by measuring it in accordance, roughly, with a reference (“Drug Metabolism and Disposition”, 2001, vol. 29, p. 1196-1200).
Final concentrations of the reagents in the enzyme reaction solution were respectively ser to CYP2D6=[…] (mfd. by BD Gentest, Cat. No.: 456217), reduced type nicotinamide adenine dinucleotide phosphate (NADPH) regeneration system (0.0081 mM nicotinamide adenine dinucleotide phosphate (NADP+), 0.41 mM glucose-6-phosphate, 0.41 mM MgCl2, […] glucose-6-phosphate dehydrogenase), and a fluorescence substrate AMMC=1.5 μM, 100 mM potassium phosphate buffer (pH 7.4). Each compound was made into a 50% acetonitrile solution and added to the enzyme reaction solution (acetonitrile final concentration 2.5%). The enzyme reaction was carried out at 37° C. for 30 minutes, the reaction was stopped using a stopping liquid (0.1 M tris(hydroxymethyl)aminomethane (Tris-base):acetonitrile=20:80), and then fluorescence intensity was measured. The concentration showing 50% inhibition (IC50) was calculated from the thus obtained fluorescence intensity, by defining the enzyme activity at the time of no compound addition as 100%.

[2] = Measurement of rat plasma calcium concentration after single oral administration; type: in vivo; details: normal male rats, 3 mg/kg oral administration
Experimental: Test 2. Measurement of Rat Plasma Calcium Concentration and Plasma PTH Concentration
The compounds of the invention were administered to rats, and their influences upon the plasma calcium concentration and plasma PTH concentration were examined. The test was carried out by single oral administration of the compounds 5 or 6 normal male rats.
As a vehicle group, an MC solution prepared by adding 0.5% methyl cellulose (MC) solution or ethanol to a final concentration of 5% was administered at a dose of 5 ml/kg. As the comparative control, cinacalcet was dissolved in the MC solution and administered at a dose of 3 mg/kg. Each of the compounds, of the invention was dissolved or suspended the MC solution, or dissolved in ethanol and then diluted with the MC solution as occasion demands, and administered at a dose of 1, 3 or 10 mg/kg.
Blood samples were collected from the orbital venous plexus under ether anesthesia before the administration and 2Hours, 4Hours, or 8Hours in some cases, after the administration, and the plasma calcium concentration was measured using Calcium E-Test Wako (mfd. by Wako Pure Chemical Industries), and the plasma PTH concentration using Rat Intact PTH ELISA Kit (mfd. by Immutopics) or Rat Bioactive Intact PTH ELISA Kit (mfd. by Immutopics).

CYP2D6 [3] = molecular target: T2, CYP2D6; details: reported, Non-patent Reference 4; cited from earlier work
[4] = HEK 293 cell stably expressing human CaSR, 0.5 mM Ca2+ buffer, solvent group 0%, 2 mM Ca2+ group 100%, read-out: EC50 (compound concentration showing 50% activity), human CaSR agonistic activity
[5] = recombinant CYP2D6, AMMC 1.5 μM, 37° C. 30 minutes, read-out: IC50 (concentration showing 50% inhibition), CYP2D6

| SMILES | pEC50 (human CaSR; [4]) | pIC50 (CYP2D6 [1]; [5]) | also measured |
| --- | --- | --- | --- |
| C[C@@H](NC[C@H]1CN(c2c(F)cc(C(=O)O)cc2F)C[C@@H]1c1ccccc1)c1cccc2ccccc12 [Example 31, 3,5-difluoro-4-[(3S,4S)-3-({[(1R)-1-(1-naphthyl)ethyl]amino}methyl)-4-phenylpyrrolidin-1-yl]benzoic acid hydrochloride] | 8.44 | – | IC50 at 30 min (CYP2D6 [1]; human, recombinant CYP2D6 (BD Gentest, Cat. No. 456217), pH 7.4, probe AMMC 1.5 μM, recombinant CYP2D6, AMMC 1.5 μM, 37° C. 30 minutes, read-out: IC50 (concentration showing 50% inhibition), CYP2D6): ≥ 6000 nM |
| COc1cc(C(=O)O)ccc1NC(=O)N1C[C@H](CN[C@H](C)c2cccc3ccccc23)[C@@H](c2ccccc2)C1 [Example 45, 3-methoxy-4-({[(3S,4S)-3-({[(1R)-1-(1-naphthyl)ethyl]amino}methyl)-4-phenylpyrrolidin-1-yl]carbonyl}amino)benzoic acid hydrochloride] | 8.51 | ≤ 5.22 | – |
| Cc1cccc([C@H]2CN(c3c(F)cc(C(=O)O)cc3F)C[C@@H]2CN[C@H](C)c2cccc3ccccc23)c1 [Example 171] | 7.80 | – | Rat plasma calcium concentration reducing ratio (%) 4 hours after administration [2]: 20% |
| CC(NC[C@H]1CN(C(=O)Oc2ccc(C(=O)O)cc2)C[C@@H]1c1ccccc1)c1csc2ccccc12 (stereo partly shown) [compound 53] | 8.28 | – | – |
| C[C@@H](NC[C@H]1CN(C(=O)c2ccc(-c3ccsc3C(=O)O)o2)C[C@@H]1c1ccccc1)c1cccc2ccccc12 [Example 98] | 8.28 | ≤ 5.22 | – |
| C[C@@H](NC[C@H]1CN(C(=O)Oc2ccc(C(=O)O)cc2)C[C@@H]1c1ccccc1)c1cccc2ccccc12.Cl [Example 33, 4-({[(3S,4S)-3-({[(1R)-1-(1-naphthyl)ethyl]amino}methyl)-4-phenylpyrrolidin-1-yl]carbonyl}oxy)benzoic acid hydrochloride] | – | – | pEC50 (human CaSR): 8.64; Rat plasma calcium concentration reducing ratio (%) 4 hours after administration [2]: 21% |
| C[C@@H](NC[C@H]1CN(C(=O)CC(C)(C)CC(=O)O)C[C@@H]1c1ccccc1)c1cccc2ccccc12 [Example 109] | 7.55 | ≤ 5.22 | Rat plasma calcium concentration reducing ratio (%) 4 hours after administration [2]: 17% |
| C[C@@H](NC[C@H]1CN(C(=O)Nc2ccc(C(=O)O)cc2)C[C@@H]1c1ccccc1)c1cccc2ccccc12 [Example 41, 4-({[(3S,4S)-3-({[(1R)-1-(1-naphthyl)ethyl]amino}methyl)-4-phenylpyrrolidin-1-yl]carbonyl}amino)benzoic acid hydrochloride] | 8.31 | ≤ 5.22 | – |
| C[C@@H](NC[C@H]1CN(C(=O)CCCCC(=O)O)C[C@@H]1c1cccc(C(F)(F)F)c1)c1cccc2ccccc12 [Example 48, 6-{(3S,4S)-3-({[(1R)-1-(1-naphthyl)ethyl]amino}methyl)-4-[3-(trifluoromethyl)phenyl]pyrrolidin-1-yl}-6-oxohexanoic acid hydrochloride] | 8.40 | – | – |
| C[C@@H](NC[C@H]1CN(c2ccc(-c3nnn[nH]3)cc2)C[C@@H]1c1ccccc1)c1cccc2ccccc12 [Example 130] | 7.82 | – | – |
| COc1cc(C(=O)O)ccc1NC(=O)N1C[C@H](CN[C@H](C)c2cccc3ccccc23)[C@@H](c2cccc(C)c2)C1 [Example 183] | 8.46 | ≤ 5.22 | Rat plasma calcium concentration reducing ratio (%) 4 hours after administration [2]: 20% |
| C[C@@H](NC[C@H]1CN(C(=O)Oc2ccc(C(=O)O)cc2)C[C@@H]1c1cccc(F)c1F)c1cccc2ccccc12 [Example 179] | – | – | pEC50 (human CaSR): 9.11; pIC50 (CYP2D6 [1]): ≤ 5.22 |
| C[C@@H](NCCCc1cccc(C(F)(F)F)c1)c1cccc2ccccc12 [cinacalcet] | – | – | activity to inhibit CYP2D6 (in words) (CYP2D6 [3]): strong activity to inhibit CYP2D6 |
| C[C@@H](NC[C@H]1CN(C(=O)Oc2ccc(C(=O)O)cc2)C[C@@H]1c1cccc(F)c1)c1cccc2ccccc12 [Example 174] | – | – | pEC50 (human CaSR): 8.47 |
